Data as given in patent publication US7232845B2, “Active substance combinations comprising insecticidal and acaricidal properties” (Bayer CropScience AG, priority 2000, dated 2007).

What follows are compounds tested on whitefly Bemisia tabaci (assay: Bemisia test (cotton plants infested with whitefly, immersed in active compound preparation)). Settings: single active compound, 4 ppm; eggs, larvae and pupae on cotton plants (Gossypium hirsutum), immersion.
Assay type: in vivo
From the text: The expected action for a given combination of two active compounds can be calculated as follows, using the formula of S. R. Colby, Weeds 15 (1967), 20–22:
• X is the efficacy, expressed as % of the untreated control, when employing active compound A at an application rate of m g/ha or in a concentration of m ppm, • Y is the efficacy, expressed as % of the untreated control, when employing active compound B at an application rate of n g/ha or in a concentration of n ppm and • E is the efficacy, expressed as % of the untreated control, when employing active compounds A and B at application rates of m and n g/ha or in a concentration of m and n ppm, then
[formula] If the actual insecticidal kill rate exceeds the calculated value, the action of the combination is superadditive, i.e. a synergistic effect is present. In this case, the actually observed insecticidal kill rate must exceed the value calculated using the above formula for the expected insecticidal kill rate (E).
• Solvent: 7.5 parts by weight of dimethylformamide • Emulsifier: 2.5 parts by weight of alkylaryl polyglycol ether
To produce a suitable preparation of active compound, 1 part by weight of active compound is mixed with the stated amounts of solvent and emulsifier, and the concentrate is diluted with water to the desired concentration.
Cotton plants (Gossypium hirsutum) which are infested with eggs, larvae and pupae of the whitefly Bemisia tabaci are immersed in a preparation of active compound of the desired concentration.
After the desired period of time, the kill in % is determined. 100% means that all animals have been killed; 0% means that none of the animals have been killed.

Row | Compound | Kill rate in % after 10^d [%]
1 | Cc1c(COC(=O)C2C(/C=C(\Cl)C(F)(F)F)C2(C)C)cccc1-c1ccccc1 (stereo not drawn) [Bifenthrin, bifenthrin] | 0
2 | CC1(C)C(C=C(Cl)Cl)C1C(=O)OC(C#N)c1ccc(F)c(Oc2ccccc2)c1 (stereo not drawn) [Cyfluthrin, cyfluthrin] | 0
3 | Cc1cc(C)c(C2=C(OC(=O)CC(C)(C)C)C3(CCCC3)OC2=O)c(C)c1 [Ex. (I-b-1)] | 0
